Data on five molecules can be found in patent US20260166068A1, “COMPOSITION FOR PROMOTING DEVELOPMENT OF BRAIN FUNCTIONS IN CHILDREN” (Meiji Co., Ltd., priority 2022, published 2026).

Several values for one entry are separate records, joined by “and”; a condition that tells them apart may be missing. Identical values can stand only once.

For assay [1], the system named is brain function development of infants. Put plainly: Spearman correlation of NAD-related substance concentration in 1-month breast milk with ASQ-3 developmental scores at 24 months. The format is in vivo, human. The conditions noted are these: for Correlation with concentration, r (Spearman): ASQ-3 at 24 months, 1-month breast milk; for Correlation of concentration in breast milk with developmental scores (in words): p<0.05. On the procedure:
(§1) The method was specifically as follows.
Concentrations of NAD-related substances in 1-month breast milk ingested by 150 infants of 1 to 6 months old, who were fully breastfed, were determined by LC-MS/MS.
Development of the infants was assessed at the age of 24 months using ASQ (registered trademark)-3 (Japanese version of ASQ (registered trademark)-3 infant developmental screening questionnaires, Igaku Shoin, 2021). The relationship between the amount of each NAD-related substance ingested by the infants and their development was evaluated by using Spearman's rank-order correlation coefficient.

Assay [2] has as its system mouse. The conditions noted are these: aging; cited from earlier work.
Assay [3] concerns aged mice. The conditions noted are these: cited from earlier work.
Assay [4] has as its system old rats. Particulars: each alone or in combination; cited from earlier work.
Assay [5] has as its system brain function development of infants. Put plainly: Between-group comparison (Mann-Whitney U) of ASQ-3 developmental scores, high NMN vs low NMN breast milk. The format is in vivo, human. The protocol: as §1
By using the data on the contents of NMN in breast milk and the developmental scores of the infants shown in Method 1, the subject infants were divided into two groups according to the concentration of NMN in breast milk, and the groups were compared according to Mann-Whitney's U-test. In this study, the boundary concentration of the two groups was set to be 1.922 μg/mL (mean NMN concentration in 1-month breast milk−1×standard deviation) or 3.089 μg/mL (mean NMN concentration in 1-month breast milk). That is, the group comparison was performed between two groups of NMN concentrations in the consumed breast milk of […] (high NMN group) and <1.922 μg/mL (low NMN group), or two groups of the same of 3.089 μg/mL (high NMN group) and <3.089 μg/mL (low NMN group).

The subject of assay [6] is mouse model of drug-induced depression. The conditions noted are these: cited from earlier work.
Assay [7] concerns piglets. The conditions noted are these: cited from earlier work.
Assay [8] deals with mice. Particulars: cited from earlier work.

In the case of `O=C(O)c1cccnc1` [NA, nicotinic acid], the “Correlation with concentration, r (Spearman)” value (shortened to “Correlation with concentration”) in assay [1] (Communication, 150 infants) was 0.025; in assay [1] (Gross motor), 0.095; in assay [1] (Problem solving), 0.147; in assay [1] (Social-individual) it was 0.154. Further, the “Correlation of concentration in breast milk with developmental scores (in words)” value (“Correlation of concentration” for short) in assay [1] (gross motor) is listed as “positive correlation”.
As to `NC(=O)c1ccc[n+]([C@@H]2O[C@H](COP(=O)([O-])OP(=O)(O)OC[C@H]3O[C@@H](n4cnc5c(N)ncnc54)[C@H](O)[C@@H]3O)[C@@H](O)[C@H]2O)c1` [NAD, nicotinamide adenine dinucleotide], the “Correlation with concentration” value amounted to 0.025 in assay [1] (Fine motor), 0.077 in assay [1] (Gross motor), 0.056 in assay [1] (Problem solving) and 0.048 in assay [1] (Social-individual).
For the molecule `NC(=O)c1ccc[n+]([C@@H]2O[C@H](COP(=O)([O-])O)[C@@H](O)[C@H]2O)c1` [NMN, nicotinamide mononucleotide], the “Hypersensitive behaviors to fear and anxiety” value in assay [2] is “may alleviate hypersensitive behaviors to fear and anxiety”. The “Correlation with concentration” value was 0.199 in assay [1] (Communication, 150 infants); 0.208 in assay [1] (Fine motor); 0.186 in assay [1] (Gross motor); 0.288 in assay [1] (Problem solving); 0.269 and 0.259 in assay [1] (Social-individual). Moreover, the “Correlation of concentration” value in assay [1] (all five developmental areas at 24 months) is reported as “significant positive correlation”. Also, the “Effectiveness in promoting brain development in infants among the NAD-related substances” value in assay [1] (in vivo) was “most effective”. Also, the “Correlation between amount in breast milk ingested from 1 to 6 months of age and development by ASQ-3 24-month (in words)” value in assay [1] (overall) is recorded as “high correlation”. Besides, the Neurovascular coupling result in assay [3] is listed as “may promote neurovascular coupling”. Also, the “Learning and memory abilities” value in assay [4] was “improves their learning and memory abilities”. Further, the “Development of the infants, high NMN group vs low NMN group” value in assay [5] (fine motor, boundary value 3.089 μg/mL, FIG. 2) was “significantly accelerated”; in assay [5] (personal-social, boundary value 1.922 μg/mL, FIG. 1), “significantly accelerated”; in assay [5] (personal-social, boundary value 3.089 μg/mL, FIG. 2), “significantly accelerated”; in assay [5] (problem solving, boundary value 3.089 μg/mL, FIG. 2), “significantly accelerated”. Besides, the “NMN level in the composition at which infants' brain functions are significantly enhanced” value in assay [5] (in vivo) was at least 1.922 µg/mL. Besides, in assay [6], the Drug-induced depression-like symptoms entry was “improves drug-induced depression-like symptoms”.
On to `NC(=O)c1ccc[n+]([C@@H]2O[C@H](CO)[C@@H](O)[C@H]2O)c1` [NR, nicotinamide riboside], for which, in assay [7], the “Short-chain fatty acids in feces” value is on record as “increased levels”. For the same molecule, the “Correlation with concentration” value in assay [1] (Communication, 150 infants) is listed as 0.017; in assay [1] (Fine motor), 0.085; in assay [1] (Gross motor), 0.082; in assay [1] (Social-individual), 0.117. In addition, the “Correlation of concentration” value in assay [1] (problem solving) was “positive correlation”. In addition, the “BDNF level in breast milk” value in assay [8] (NR supplementation of mothers) is on record as “twice as high”. The “Fat and brain size of offspring at weaning” value in assay [8] (mice raised by supplemented mothers) is “lower fat and larger brains”. In addition, the “Milk secretion and production of BDNF” value in assay [8] (mouse, in vivo) is given as “stimulates milk secretion”.
As to `COc1ccc2[nH]cc(CCNC(C)=O)c2c1` [melatonin], the “Learning and memory abilities” value in assay [4] was “improves their learning and memory abilities”.
